Assay results from patent US7879792B2, “Synthetic peptide inhibitors of thrombin and thrombin activation of protease activated receptors 1 and 4” (The Regents of the University of Michigan, priority 2005, dated 2011).
Entries after “also recorded” stand apart in the source; their conditions may differ. Where a SMILES comes first, the peptide text is derived from it.

How the values were obtained:
[1] = tested on: C57BL6 mice; experiment: Rose Bengal model for arterial thrombosis, time to carotid artery occlusion; type: in vivo, mouse; details: 0.4 to 1.61 mg/kg IP
Source text: C57BL6 mice 6 to 16 weeks of age were anesthetized by intraperitoneal injection with sodium pentobarbital and placed in the supine position on a dissecting microscope (Nikon SMZ-2T, Mager Scientific, Inc., Dexter, Mich.). A midline surgical incision was made to expose the right common carotid artery and a Doppler flow probe (Model 0.5 VB, Transonic Systems, Ithaca, N.Y.) is placed under the vessel. The probe was connected to a flowmeter (Transonic Model T106) and was interpreted with a computerized data acquisition program (Windaq, DATAQ Instruments, Arkron, Ohio). Rose Bengal (4,5,6,7-tetrachloro-3′,6-dihydroxy-2,4,5,7-tetraiodospiro(isobenzofuran-1(3H), 9 [9H] xanthan)-3-1 dipotassium salt) (Fisher Scientific, Fair Lawn, N.J.) at 50 mg/kg in 0.9% saline) was then injected into the tail vein in a 0.12 ml volume (Eitzman et al., Blood 95, 577 (2000)). After injection into the tail vein, a green laser light (Melles Griot, Carlsbad, Calif.) at a wavelength of 540 nm was applied 6 cm from the carotid artery. Flow is monitored continuously from the onset of injury. The time to occlusion was determined only after the vessel remained closed with a cessation of blood flow for 20 min. […] These investigations indicate that these compounds are able to prevent thrombosis in the whole animal in vivo.

[2] = tested on: normal human lung fibroblasts (NHLF); experiment: α-thrombin-induced calcium mobilization in normal human lung fibroblasts; type: cell-based; details: 2 nM alpha thrombin
Method: The second assay developed to assess peptides from the combinatorial libraries uses inhibition of α-thrombin-induced calcium mobilization in fibroblasts. Normal human lung fibroblasts (NHLF) were purchased from Clonetics, San Diego, Calif., an affiliate of Bio-Wittaker, Walkersville, Md. The cytoplasmic free Ca^2+ concentration ([Ca^2+]i) was measured using the fluorescent Ca^2+ indicator fura-2 (Molecular Probes, Inc., Eugene, Oreg.). Suspension of fibroblasts in Hepes-Tyrode's buffer were loaded with fura-2 by incubation at 37° C. with 2 μM fura-2/acetoxymethyl ester for 45 minutes according to the method of Rasmussen et al., J. Biol. Chem. 268, 14322 (1993). The labeled fibroblasts were separated from excess probe by washing by centrifugation at 1000 rpm (180 xg). Aliquots of the labeled fibroblasts were transferred into a quartz cuvette with a magnetic stirrer, which was then placed in a thermostatically controlled chamber at 37° C. in a fluorescence spectrophotometer (Perkin-Elmer LS50B spectrofluorometer, Chicago, Ill.). Reagents, test peptide, and α-thrombin (0.25-2 nM), were sequentially added directly to the cuvette. The excitation wavelengths varied between 340 and 380 nm. Fluorescence was measured by recording emitted light at 510 nm as reported by Fisher et al., Mol Pharm. 35, 195 (1989). The minimum emission was determined on a solubilized fibroblast sample in the presence of 10 mM EDTA; maximum emission was determined on the same sample with 10 mM Ca^2+ added. The intrafibroblast free Ca^2+ concentration was calculated by the method of Grykiewicz et al., J. Biol. Chem. 260, 3440 (1985). The ratio of the fluorescence readings was calculated as R=340/380 nm and processed according to the equation [Ca^2+]i=KD((R−Rmin)/Rmax−R))(Sf2/Sb2) to determine the intrafibroblast free Ca^2+ concentration. The KD for fura-2 was assumed to be 224 nM. Rmax and Rmin are the maximum and minimum fluorescence ratios measured at the end of the experiment, respectively; Sf2 and Sb2 are the fluorescence values at 380 nm in the absence and presence of saturating [Ca^2+], respectively. The reaction was monitored for 3-5 minutes.

[3] = target: human α-thrombin (Homo sapiens, UniProt P00734); experiment: inhibition of α-thrombin hydrolysis of chromogenic substrate; type: biochemical; details: Ki (μM) + SD, αIIa (2 nM), alpha-thrombin 2 nM, Sar-Pro-Arg-paranitroanilide
[4] = target: γ-thrombin; experiment: inhibition of γ-thrombin hydrolysis of chromogenic substrate; type: biochemical, human; details: read-out: Ki (μM) + SD, γIIa (2 nM); gamma-thrombin 2 nM, Sar-Pro-Arg-paranitroanilide
[5] = tested on: γ-thrombin-induced platelet aggregation; experiment: γ-thrombin-induced platelet aggregation in human platelet-rich plasma; type: cell-based
Method: Fresh whole blood was collected and mixed with 0.013 M sodium citrate and platelet-rich plasma was prepared according to the method of Meloni et al., J. Biol. Chem. 266, 6786 (1991). Platelet-rich plasma with a normalized platelet count between 2-2.5×10^8 platelets/ml was added to a cuvette of an aggregometer (Chronlog Corp., Havertown, Pa.), standardized using the protocol of Meloni et al., supra. Peptides to be examined were added to the cuvette and the mixture stabilized for a few moments. Once the baseline was stabilized, γ-thrombin (10-70 nM) (Haematologic Technologies, Essex Junction, Vt.) was added to determine the minimal concentration of the agonist necessary to achieve full platelet aggregation. All investigations with peptides were performed using threshold concentrations of γ-thrombin. Aggregation was allowed to proceed for 5 minutes before stopping.
Table III is a tabulation of the library of peptides prepared and their influence on γ-thrombin-induced platelet aggregation in platelet-rich plasma. […] The numbers in the column represent the minimal concentration (mM) of the peptide that blocked 100% γ-thrombin-induced platelet aggregation of platelets in human platelet-rich plasma.
Human platelet samples were stimulated with 40 nM human gamma thrombin in each experiment.

[6] = target: thrombin (Homo sapiens, UniProt P00734); details: read-out: Ki, retrobinders to the active site of thrombin; cited from earlier work

| Compound | time to occlusion of the mouse right carotid artery [1] | alpha thrombin-induced calcium mobilization ([2]; 0.00038 mM peptide) | inhibition of thrombin-induced calcium mobilization ([2]; 0.003 mM peptide) [%] | inhibition of thrombin-induced calcium mobilization ([2]; 0.08 mM peptide) [%] | Ki [3] [µM] | Ki [4] [µM] | Concentration of Peptide [mM] That Gives 100% Inhibition ([5]; 40 nM human gamma thrombin, human platelet-rich plasma) [mM] | concentration that abolished γ-thrombin-induced platelet aggregation ([5]; 40 nM γ-thrombin) [µM] | Ki [6] [µM] |
| --- | --- | --- | --- | --- | --- | --- | --- | --- | --- |
| Cc1ccc(C[C@H](NC(=O)[C@@H](CO)NC(=O)[C@@H]2CCCN2C(=O)[C@@H]2C[C@@H]3CCCC[C@@H]3N2C(=O)[C@H](N)CCCNC(=N)N)C(N)=O)cc1 [rOicPsF(p-Me), D-Arg-Oic-Pro-D-Ser-Phe(p-Me)] (HELM PEPTIDE1{[dR].[O=C([C@@H]1C[C@@H]2CCCC[C@@H]2N1[*:1])[*:2]].P.[dS].[Cc1ccc(C[C@H](N[*:1])C(=O)[*:2])cc1].[am]}$$$$V2.0) | significant prolongation; also recorded: prolonged | full recovery | 59 | 97 | 6.4 to 10.6 | 42.2 ± 6 | 0.016 | 16 |  |
| β-Ala-Lys-2Lys-4(Arg-Pro-Pro-Gly-Phe) [MAP4-RPPGF] |  |  |  |  |  |  |  |  | 1750 |
